In this experiment the target is T1, ΔF508-CFTR (Homo sapiens, UniProt P13569, DEL508-508).
T1 construct: expressed in transfected cells
The experiment is described as follows: Membrane potential optical assay (FRET voltage-sensor dyes, VIPR), identification of potentiator compounds. It counts as cell-based. As to conditions: Table 3, assay not given; for Emax: read-out: % Activity (% Efficacy, relative efficacy). The procedure, abridged:
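Potentiator screen measured membrane potential via FRET between CC2-DMPE donor and DiSBAC2(3), read on VIPR II. Compound went in with the first addition of chloride-free gluconate bath; cells were ΔF508-CFTR-expressing NIH3T3 mouse fibroblasts, temperature-corrected at 27 °C for 24 h.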

This passage reports EC50 and Emax results from patent publication US8802700B2 (Vertex Pharmaceuticals Incorporated, priority 2010, dated 2014).

T1 sequence (P13569 with tags, fused parts or gaps DEL508-508): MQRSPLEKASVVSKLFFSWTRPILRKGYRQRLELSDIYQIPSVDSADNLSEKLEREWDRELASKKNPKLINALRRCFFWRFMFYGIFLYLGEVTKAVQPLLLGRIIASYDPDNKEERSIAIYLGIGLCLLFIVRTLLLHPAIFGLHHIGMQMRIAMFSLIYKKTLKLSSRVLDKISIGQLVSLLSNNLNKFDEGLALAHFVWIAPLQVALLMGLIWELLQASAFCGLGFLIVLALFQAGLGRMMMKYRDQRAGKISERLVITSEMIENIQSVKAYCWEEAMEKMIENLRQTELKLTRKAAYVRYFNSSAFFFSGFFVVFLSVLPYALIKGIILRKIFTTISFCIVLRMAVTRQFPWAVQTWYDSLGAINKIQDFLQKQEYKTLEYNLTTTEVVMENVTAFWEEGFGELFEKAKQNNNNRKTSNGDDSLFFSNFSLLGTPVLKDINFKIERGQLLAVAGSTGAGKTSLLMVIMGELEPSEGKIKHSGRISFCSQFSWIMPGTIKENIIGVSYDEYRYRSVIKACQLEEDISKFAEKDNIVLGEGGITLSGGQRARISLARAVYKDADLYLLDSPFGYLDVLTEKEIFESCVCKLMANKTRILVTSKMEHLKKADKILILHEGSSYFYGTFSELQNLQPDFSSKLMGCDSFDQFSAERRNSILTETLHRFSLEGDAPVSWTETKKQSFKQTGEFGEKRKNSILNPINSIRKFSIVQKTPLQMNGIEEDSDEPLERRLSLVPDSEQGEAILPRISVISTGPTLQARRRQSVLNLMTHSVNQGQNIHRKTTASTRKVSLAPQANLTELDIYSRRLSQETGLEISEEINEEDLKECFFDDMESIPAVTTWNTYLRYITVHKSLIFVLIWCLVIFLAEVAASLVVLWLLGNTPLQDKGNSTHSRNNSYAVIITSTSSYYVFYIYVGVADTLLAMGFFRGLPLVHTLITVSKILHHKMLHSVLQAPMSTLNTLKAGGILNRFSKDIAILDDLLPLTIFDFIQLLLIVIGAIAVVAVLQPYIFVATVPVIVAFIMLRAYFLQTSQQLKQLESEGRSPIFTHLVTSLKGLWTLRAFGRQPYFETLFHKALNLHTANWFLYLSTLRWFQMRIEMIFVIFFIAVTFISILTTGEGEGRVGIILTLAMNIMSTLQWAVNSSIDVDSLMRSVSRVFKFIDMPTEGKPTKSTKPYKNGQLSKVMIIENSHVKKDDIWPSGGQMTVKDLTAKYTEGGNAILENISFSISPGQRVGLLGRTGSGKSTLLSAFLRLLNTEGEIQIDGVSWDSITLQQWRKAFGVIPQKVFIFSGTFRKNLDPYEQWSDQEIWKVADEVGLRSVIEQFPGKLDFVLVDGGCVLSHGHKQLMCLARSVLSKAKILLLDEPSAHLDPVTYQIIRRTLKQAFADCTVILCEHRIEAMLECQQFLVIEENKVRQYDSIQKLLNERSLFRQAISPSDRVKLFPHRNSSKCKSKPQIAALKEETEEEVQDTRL

What is called EC50 is the concentration needed to bring the measured effect to its halfway point. For `O=C(Nc1ccccc1-c1cc(F)cc(F)c1)c1c[nH]c2ccccc2c1=O` [Compound 138, N-[2-(3,5-difluorophenyl)phenyl]-4-oxo-1H-quinoline-3-carboxamide], the EC50 was less than 10 µM and the Emax lay within 25 to 100%.
On to `O=C(Nc1ccccc1-c1ccc(Cl)cc1Cl)c1c[nH]c2ccccc2c1=O` [Compound 139, N-[2-(2,4-dichlorophenyl)phenyl]-4-oxo-1H-quinoline-3-carboxamide], for which the EC50 is less than 10 µM and the Emax was 25 to 100%.
`O=C(Nc1ccc(C2CCCCC2)cc1)c1c[nH]c2ccccc2c1=O` [Compound 140, N-(4-cyclohexylphenyl)-4-oxo-1H-quinoline-3-carboxamide]: the EC50 is less than 10 µM and the Emax lay within 25 to 100%.
As to `CCOC(=O)Nc1cc(NC(=O)c2c[nH]c3ccccc3c2=O)ccc1C` [Compound 141, [2-methyl-5-[(4-oxo-1H-quinolin-3-yl)carbonylamino]phenyl]aminoformic acid ethyl ester], the Emax lay in the range of 25 to 100%.
The same measure, in the same setting: to `CCC(C)c1ccccc1NC(=O)c1c[nH]c2ccccc2c1=O` (stereo not shown) [Compound 142, 4-oxo-N-(2-sec-butylphenyl)-1H-quinoline-3-carboxamide] belongs 25 to 100%; to `CC(C)(C)c1cc(F)c(NC(=O)c2c[nH]c3ccccc3c2=O)cc1O` [Compound 143, N-(2-fluoro-5-hydroxy-4-tert-butyl-phenyl)-4-oxo-1H-quinoline-3-carboxamide], 25 to 100%.
Take `O=C(Nc1cccc(O)c1)c1c[nH]c2ccccc2c1=O` [Compound 144, N-(3-hydroxyphenyl)-4-oxo-1H-quinoline-3-carboxamide]: the Emax lay in the range of 25 to 100%.
With `CCOC(=O)c1cc(NC(=O)c2c[nH]c3ccccc3c2=O)cc2[nH]ccc12` [Compound 145, 6-[(4-oxo-1H-quinolin-3-yl)carbonylamino]-1H-indole-4-carboxylic acid ethyl ester], the EC50 was less than 10 µM and the Emax lay within 25 to 100%.
As to `O=C(Nc1cccn2ncnc12)c1c[nH]c2ccccc2c1=O` [Compound 146, 4-oxo-N-(1,7,9-triazabicyclo[4.3.0]nona-2,4,6,8-tetraen-5-yl)-1H-quinoline-3-carboxamide], the Emax was less than 25%.
Still for that read-out and setting: for `O=C(Nc1cccnc1Oc1ccc(F)cc1)c1c[nH]c2ccccc2c1=O` [Compound 147, N-[2-(4-fluorophenoxy)-3-pyridyl]-4-oxo-1H-quinoline-3-carboxamide] the value was 25 to 100%; for `O=C(Nc1cc2[nH]ccc2cc1C(=O)N1CCCCC1)c1c[nH]c2ccccc2c1=O` [Compound 148, 4-Oxo-N-[5-(1-piperidylcarbonyl)-1H-indol-6-yl]-1H-quinoline-3-carboxamide], 25 to 100%.
For the compound `CCc1ccc(NC(=O)c2c[nH]c3ccccc3c2=O)cc1NC(C)=O` [Compound 149, N-(3-acetylamino-4-ethyl-phenyl)-4-oxo-1H-quinoline-3-carboxamide], the Emax was 25 to 100%.
Take `O=C(Nc1ccc(C(O)(C(F)(F)F)C(F)(F)F)cc1)c1c[nH]c2ccccc2c1=O` [Compound 150, 4-oxo-N-[4-[2,2,2-trifluoro-1-hydroxy-1-(trifluoromethyl)ethyl]phenyl]-1H-quinoline-3-carboxamide]: the Emax fell in the range of 25 to 100%.
As for `Cc1csc(-c2ccccc2NC(=O)c2c[nH]c3ccccc3c2=O)c1` [Compound 151, N-[2-(4-methyl-2-thienyl)phenyl]-4-oxo-1H-quinoline-3-carboxamide], the Emax was 25 to 100%.
As for `O=C(Nc1ccc2[nH]c(=O)oc2c1)c1c[nH]c2ccccc2c1=O` [Compound 152, 4-oxo-N-(2-oxo-3H-benzooxazol-6-yl)-1H-quinoline-3-carboxamide], the Emax is less than 25%.
The same measure, in the same setting: to `CCC(CC)(c1cc(F)c(NC(=O)c2cnc3ccccc3c2O)cc1O)C(C)(C)C` [Compound 153, N-[4-(1,1-diethyl-2,2-dimethyl-propyl)-2-fluoro-5-hydroxy-phenyl]-4-hydroxy-quinoline-3-carboxamide] belongs 25 to 100%.
On the same count and under the same terms, for `O=C(Nc1cc(C(F)(F)F)cc(C(F)(F)F)c1)c1c[nH]c2ccccc2c1=O` [Compound 154, N-[3,5-bis(trifluoromethyl)phenyl]-4-oxo-1H-quinoline-3-carboxamide] the value was less than 25%.
As for `O=C(Nc1ccccn1)c1c[nH]c2ccccc2c1=O` [Compound 155, 4-oxo-N-(2-pyridyl)-1H-quinoline-3-carboxamide], the Emax is less than 25%.
With `O=C(Nc1ccccc1-c1ccccc1OC(F)(F)F)c1c[nH]c2ccccc2c1=O` [Compound 156, 4-oxo-N-[2-[2-(trifluoromethoxy)phenyl]phenyl]-1H-quinoline-3-carboxamide], the Emax fell in the range of 25 to 100%.
For the compound `CCc1ccc(NC)cc1NC(=O)c1c[nH]c2ccccc2c1=O` [Compound 157, N-(2-ethyl-5-methylamino-phenyl)-4-oxo-1H-quinoline-3-carboxamide], the Emax was in the range of 25 to 100%.
Take `O=C(Nc1cc2[nH]ccc2cc1-c1ccccc1)c1c[nH]c2ccccc2c1=O` [Compound 158, 4-Oxo-N-(5-phenyl-1H-indol-6-yl)-1H-quinoline-3-carboxamide]: the Emax was 25 to 100%.
On to `COC(=O)NC1CCCc2ccc(NC(=O)c3c[nH]c4ccccc4c3=O)cc21` (stereo not shown) [Compound 159, [7-[(4-Oxo-1H-quinolin-3-yl)carbonylamino]tetralin-1-yl]aminoformic acid methyl ester], for which the Emax lay within 25 to 100%.
Regarding `CCCc1ccc(NC(=O)c2c[nH]c3ccccc3c2=O)cc1N` [Compound 160, N-(3-amino-4-propyl-phenyl)-4-oxo-1H-quinoline-3-carboxamide], the Emax was in the range of 25 to 100%.
As to `CCOCCOc1cc(NC(=O)c2c[nH]c3ccccc3c2=O)ccc1C(C)(C)C` [Compound 161, N-[3-(2-ethoxyethoxy)-4-tert-butyl-phenyl]-4-oxo-1H-quinoline-3-carboxamide], the Emax is 25 to 100%.
Same read-out and setting: to `COc1ccc(NC(=O)c2c[nH]c3ccccc3c2=O)cn1` [Compound 162, N-(6-methoxy-3-pyridyl)-4-oxo-1H-quinoline-3-carboxamide] belongs less than 25%; to `CCOc1ccccc1-c1ccc(CN)cc1NC(=O)c1c[nH]c2ccccc2c1=O` [Compound 163, 4-Oxo-1,4-dihydro-quinoline-3-carboxylic acid (4-aminomethyl-2′-ethoxy-biphenyl-2-yl)-amide], 25 to 100%.
The same measure, in the same setting: to `O=C(Nc1cccc(C(F)(F)F)c1)c1c[nH]c2ccccc2c1=O` [Compound 164, 4-oxo-N-[3-(trifluoromethyl)phenyl]-1H-quinoline-3-carboxamide] belongs 25 to 100%.
The same measure, in the same setting: for `NS(=O)(=O)c1ccc(NC(=O)c2c[nH]c3ccccc3c2=O)cc1` [Compound 165, 4-oxo-N-(4-sulfamoylphenyl)-1H-quinoline-3-carboxamide] the value was less than 25%; for `COC(=O)c1ccc(-c2ccccc2NC(=O)c2c[nH]c3ccccc3c2=O)cc1` [Compound 166, 4-[2-[(4-oxo-1H-quinolin-3-yl)carbonylamino]phenyl]benzoic acid methyl ester], 25 to 100%; for `Cc1ccc(NC(=O)c2c[nH]c3ccccc3c2=O)cc1N` [Compound 167, N-(3-amino-4-methyl-phenyl)-4-oxo-1H-quinoline-3-carboxamide], 25 to 100%.
With `O=C(Nc1cccnc1)c1c[nH]c2ccccc2c1=O` [Compound 168, 4-oxo-N-(3-pyridyl)-1H-quinoline-3-carboxamide], the Emax is less than 25%.
Still for that read-out and setting: to `Cn1ccc2ccc(NC(=O)c3c[nH]c4ccccc4c3=O)cc21` [Compound 169, N-(1-methyl-1H-indol-6-yl)-4-oxo-1H-quinoline-3-carboxamide] belongs 25 to 100%.
On the same count and under the same terms, for `O=C(Nc1ccc(Cl)cn1)c1c[nH]c2ccccc2c1=O` [Compound 170, N-(5-chloro-2-pyridyl)-4-oxo-1H-quinoline-3-carboxamide] the value was less than 25%; for `O=C(Nc1ccccc1-c1cccc(Cl)c1Cl)c1c[nH]c2ccccc2c1=O` [Compound 171, N-[2-(2,3-dichlorophenyl)phenyl]-4-oxo-1H-quinoline-3-carboxamide], 25 to 100%; for `O=C(Nc1ccccc1-c1cc2ccccc2s1)c1c[nH]c2ccccc2c1=O` [Compound 172, N-(2-(benzo[b]thiophen-2-yl)phenyl)-1,4-dihydro-4-oxoquinoline-3-carboxamide], 25 to 100%.
Same read-out and setting: to `Cc1cccc(NC(=O)c2c[nH]c3ccccc3c2=O)n1` [Compound 173, N-(6-methyl-2-pyridyl)-4-oxo-1H-quinoline-3-carboxamide] belongs less than 25%.
For the compound `CC(=O)c1ccc(-c2ccccc2NC(=O)c2c[nH]c3ccccc3c2=O)s1` [Compound 174, N-[2-(5-acetyl-2-thienyl)phenyl]-4-oxo-1H-quinoline-3-carboxamide], the Emax fell in the range of 25 to 100%.
The same measure, in the same setting: to `CC(=O)N1CC2(CC2)c2ccc(NC(=O)c3c[nH]c4ccccc4c3=O)cc21` [Compound 175, 4-Oxo-1,4-dihydro-quinoline-3-carboxylic acid N-(1′-Acetyl-1′,2′-dihydrospiro[cyclopropane-1,3′-3H-indol]-6′-yl)-amide] belongs 25 to 100%.
With `O=C(Nc1ccc(OC(F)(F)F)cc1)c1c[nH]c2ccccc2c1=O` [Compound 176, 4-oxo-N-[4-(trifluoromethoxy)phenyl]-1H-quinoline-3-carboxamide], the Emax was in the range of 25 to 100%.
Regarding `CCCCOc1ccccc1NC(=O)c1c[nH]c2ccccc2c1=O` [Compound 177, N-(2-butoxyphenyl)-4-oxo-1H-quinoline-3-carboxamide], the Emax is greater than 100%.
On the same count and under the same terms, to `CC(C)(C)c1ccccc1Oc1ccccc1NC(=O)c1c[nH]c2ccccc2c1=O` [Compound 178, 4-oxo-N-[2-(2-tert-butylphenoxy)phenyl]-1H-quinoline-3-carboxamide] belongs 25 to 100%.
The same measure, in the same setting: for `NC(=O)c1cccc(NC(=O)c2c[nH]c3ccccc3c2=O)c1` [Compound 179, N-(3-carbamoylphenyl)-4-oxo-1H-quinoline-3-carboxamide] the value was less than 25%.
